Source: patent publication US20260042847A1, “CYSTEINE ENGINEERED ANTIBODY CONSTRUCTS, CONJUGATES AND METHODS OF USE” (ZYMEWORKS INC., priority 2021, published 2026)
Square brackets hold non-standard residues; d marks the D form. Peptide text beside a SMILES is read from it. * marks the point of attachment. Dolaproine = CO[C@@H]([C@@H]1CCCN1)[C@@H](C)C(=O)O; Dil = CC[C@H](C)[C@H](NC)[C@@H](CC(=O)O)OC; X1 = C[C@@H](N*)[C@@H](O)c1ccccc1; NMeV = CN[C@H](C(=O)O)C(C)C

How the values were obtained:
Type in all cases: cell-based
[1] = system: HCC827 cell line (mid c-Met expressing); assay: In vitro cytotoxicity (CellTiter-Glo), HCC827; conditions: 4 nights incubation; n = 2
Method: (§1) Cytotoxicity of the ADCs from Example 3 comprising either MCvcPABC-MMAE or MTvcCompound 1 was tested in vitro against a variety of tumor cell lines expressing the target surface antigen (c-Met) as described below. The following cell lines were used (Table 9.1).
(§2) Each of the cell lines shown in Table 9.1 was grown in the respective complete growth medium until assay day. After removal from the culture vessels using Trypsin-EDTA, cells were counted using a Scepter™ Cell Counter (Sigma-Aldrich Canada, Oakville, ON). Cells were diluted in complete growth medium to 20,000 cells/mL, such that 50 μL/well in 384-well plates equaled 1,000 cells/well, unless otherwise specified. All ADCs were diluted to 15 nM starting concentration in complete growth medium (RPMI 1640) followed by a 1:3 dilution in sterile 96-well dilution plates (final volume 200 μL/well). Samples (20 μL/well) were transferred into a 384-well plate in duplicate. Plates were then seeded with 20,000 cell/mL suspension of test cell line (50 μL/well), unless otherwise specified. […] After incubation, cell viability was quantified by adding 1×CellTiter-Glo® reagent (Promega Corporation, Madison, WI) at 10 μL/well. After incubating for 30 min in the dark, luminescence was measured using a Synergy™ H1 Hybrid Multi-Mode Reader (BioTek Instruments Inc., Winooski, VT). Data was analyzed with Prism 7 software (GraphPad Prism Software).

[2] = system: H292 cell line (mid c-Met expressing); assay: In vitro cytotoxicity (CellTiter-Glo), H292; conditions: 4 nights incubation; n = 2; IC = cytotoxicity shown but curve not optimal for accurate EC50
Method: as §1, §2

[3] = system: BT-20 cell line (low c-Met expressing); assay: In vitro cytotoxicity (CellTiter-Glo), BT-20; conditions: 4 nights incubation; n = 2; IC = cytotoxicity shown but curve not optimal for accurate EC50
Method: as §1, §2

[4] = system: EBC-1 cell line (high c-Met-expressing); assay: In vitro cytotoxicity (CellTiter-Glo), EBC-1; conditions: 4 nights incubation; n = 2
Method: as §1, §2

For `CC[C@H](C)[C@@H]([C@@H](CC(=O)N1CCC[C@H]1[C@H](OC)[C@@H](C)C(=O)N[C@H](C)[C@@H](O)c1ccccc1)OC)N(C)C(=O)[C@@H](NC(=O)[C@@H](NC)C(C)C)C(C)C` [MMAE] (H-[NMeV]V[Dil][Dolaproine]-X1), the EC50 [1] was 0.36 nM, the EC50 [2] was 0.11 nM and the EC50 [3] was 0.13 nM. For the same compound, the EC50 [4] was 0.16 nM.
